Test [1] deals with muscarinic receptors. The conditions noted are these: cited from earlier work.
In test [2] the test system is Monoamine Oxidase-B (MAO-B). The note with it: cited from earlier work.
Test [3] has as its system cisplatin-induced retching and vomiting. The test can be described thus: Cisplatin-induced emesis in the ferret. Type of test: in vivo, ferret (Mustela putariofuro). The note with it: for Latency: first emetic event; for Effect on latency of the first emetic response (in words): across doses tested i.p.; for Effect on number of cisplatin-induced emetic events (in words): across doses tested i.p. (ondansetron 5, 10 mg/kg; MCI-225 1, 10, 30 mg/kg); for Retches (360 min) / Vomits (360 min) / Total Events: male ferrets; for Total Events: 360 min. Here is the method:
The ability of MCI-225 to reduce retching and vomiting in an accepted model of cytotoxin-induced emesis in the ferret was assessed. Specifically, the experiments described herein investigated the effect of MCI-225 on retching and vomiting induced by cisplatin. Ondansetron was used as a positive control in the model, in view of its known antiemetic activity. Adult male ferrets (Mustela putariofuro) weighing 1200–1880 g were purchased from Triple F Farms (Sayre, Pa.) and housed in individual cages at standardized conditions (12:12 h light/dark cycle and 21–23° C.). Prior to the experiments, the ferrets were allowed a 7–10 day acclimatization period to the animal facility. The ferrets were fed a carnivore diet with free access to food and water throughout the course of the study. The use of the ferret model of emesis and the drug treatment were preapproved in accordance with facility standards. A cisplatin solution was prepared by adding preheated (70° C.) saline to cisplatin powder (Sigma-Aldrich Co.) and stirring or sonicating at 40° C. until dissolved. Following administration of the cisplatin and either MCI-225, ondansetron or vehicle alone, the occurrence of retching and vomiting was monitored for a period of 6 hours. Retching was defined as the number of forceful rhythmic contractions of the abdomen occurring with the animal in characteristic posture, but not resulting in the expulsion of upper gastrointestinal tract contents (Watson et al., British Journal of Pharmacology, 115(1): 84–94 (1994)). Vomiting was defined as the forceful oral expulsion of upper gastrointestinal contents. The latency of the retching or vomiting response and the number of episodes were recorded for each animal and summarized for each experimental group (Wright et al., Infect. Immun., 68(4): 2386–9 (2000)). Following one hour of acclimation to the observation cage, ferrets received an intraperitoneal (i.p.) injection of cisplatin (5 mg/kg in 5 mL) followed in about 2 minutes by i.p. injection of a single dose of MCI-225 or ondansetron (Rudd and Naylor, Eur. J. Pharmacol., 322: 79–82 (1997)). Dose-response effects of MCI-225 dosed at 1, 10 and 30 mg/kg i.p. in a 0.5 ml/kg solution or ondansetron dosed at 5 and 10 mg/kg i.p. in a 0.5 mL/kg solution were studied. Each animal received a single-dose drug treatment. In addition, three animals received an initial dose (30 mg/kg i.p.) and a second MCI-225 injection (30 mg/kg i.p.) 180 minutes following the initial dose. Control animals were treated with cisplatin followed by vehicle alone (propanediol dosed in a 0.5 mL/kg solution). All groups were randomized.

The target in test [4] is T1, 5-HT3 receptor (Mus musculus, UniProt P23979).
T1 construct: host or cells: N1E-115 mouse neuroblastoma cells
T1 sequence (P23979 24-489): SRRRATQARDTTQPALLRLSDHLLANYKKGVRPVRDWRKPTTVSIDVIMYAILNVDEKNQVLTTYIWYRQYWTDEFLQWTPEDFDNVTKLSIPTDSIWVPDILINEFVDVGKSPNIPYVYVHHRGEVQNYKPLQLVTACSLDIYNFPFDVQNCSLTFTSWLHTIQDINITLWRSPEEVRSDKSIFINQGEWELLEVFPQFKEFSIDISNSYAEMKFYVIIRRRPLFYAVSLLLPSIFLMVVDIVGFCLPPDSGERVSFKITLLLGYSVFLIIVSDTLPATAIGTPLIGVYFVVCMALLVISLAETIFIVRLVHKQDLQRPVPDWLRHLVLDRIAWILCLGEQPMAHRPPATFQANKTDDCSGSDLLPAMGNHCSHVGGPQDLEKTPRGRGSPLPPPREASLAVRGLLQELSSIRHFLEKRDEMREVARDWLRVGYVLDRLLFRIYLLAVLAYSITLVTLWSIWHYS
The note with it: radioligand binding; read-out: Ki, affinity for the 5-HT3 receptor; cited from earlier work.

Test [5] relates to α1, α2, β1, β2, 5-HT1, 5-HT1A, 5-HT1c, 5-HT2, 5-HT4, 5-HT6, 5-HT7, D1, D2, Muscarinic, M1, M2, M3, Nicotonic, H1, H2, GABA-A, GABA-B, BZP, Opiate, CRF and …. The note with it: all receptors tested other than 5-HT3; read-out: IC50, radioligand binding to additional receptors; cited from earlier work.
The test system of test [6] is Monoamine Oxidase-A (MAO-A). The conditions noted are these: cited from earlier work.
Where [7] appears, read: 10 mg/kg i.p. single dose after cisplatin 5 mg/kg i.p.
Where [8] appears, read: 5 mg/kg i.p. single dose after cisplatin 5 mg/kg i.p.

Results on 2 compounds are retold here after US7094786B2, “Method of treating nausea, vomiting, retching or any combination thereof” (Dynogen Pharmaceuticals, Inc., priority 2003, dated 2006).

Molecules are shown by their SMILES.

What is called Ki is a measure of affinity in units of concentration, obtained from inhibition or displacement. For orientation: IC50 means the concentration at which inhibition is half-maximal. `Cc1cc2c(-c3ccccc3F)nc(N3CCNCC3)nc2s1` [MCI-225, 4-(2-fluorophenyl)-6-methyl-2-(1-piperazinyl)thieno[2,3-d]pyrimidine]: the Anticholinergic activity entry in test [1] is given as “substantially no anticholinergic activity”. For the same compound, the “Inhibition of MAO-B activity” value in test [2] is on record as “did not inhibit”. Further, the “Latency” value is 186 ± 35 min in test [3] (1 mg/kg i.p. single dose after cisplatin 5 mg/kg i.p.); 192 ± 57 min in test [3] (setting [7]); 360 ± 0 min in test [3] (30 mg/kg b.i.d i.p. (two doses, 180-min interval) after cisplatin 5 mg/kg i.p.); 287 ± 38 min in test [3] (30 mg/kg i.p. single dose after cisplatin 5 mg/kg i.p.). In test [3], the “Effect on latency of the first emetic response (in words)” value is recorded as “increase in the latency of the response”. For the same compound, the “Effect on number of cisplatin-induced emetic events (in words)” value in test [3] was “dose-dependent reduction in the retches and vomits”. The “Overall antiemetic efficacy (conclusion)” value in test [3] (similar dose range as ondansetron) was “effective at reducing retching and vomiting”. Further, the “Emetic response (in words)” value in test [3] (two doses of 30 mg/kg, b.i.d at a 180-min interval) was “eliminated”. The Ki in test [4] is less than 100 nM. Besides, in test [5], the half-inhibitory concentration (IC50) is more than 1000 nM. The “Inhibition of MAO-A activity” value in test [6] is “did not inhibit”.

With `Cc1nccn1CC1CCc2c(c3ccccc3n2C)C1=O` (centres unmarked) [Ondansetron, ondansetron], in test [3] (setting [8]), the “Latency” value is 288 ± 4 min, the “Retches (360 min)” value was determined as 11.2 ± 7.0, the “Vomits (360 min)” value was found to be 0.3 ± 0.2 and the “Total Events” value was 11.5 ± 7.2. Also, in test [3] (setting [7]), the “Latency” value was determined as 313 ± 32 min, the “Retches (360 min)” value is listed as 2.4 ± 1.6, the “Vomits (360 min)” value is listed as 0.0 ± 0.0 and the “Total Events” value came to 2.4 ± 1.6. Moreover, in test [3], the “Effect on latency of the first emetic response (in words)” value was “increase in the latency of the first emetic response” and the “Effect on number of cisplatin-induced emetic events (in words)” value was “dose-dependently reduced the number of emetic events”.
